Measurements reported in US20260285850A1, “SUBSTITUTED OXAZOLIDINONES AND IMIDAZOLINONES AS HERBICIDES” (FMC CORPORATION, priority 2023, published 2026).

Key:
Type in all cases: in vivo
[1] = tested on: barnyardgrass (Echinochloa crus-galli); experiment: Test A preemergence soil spray, visual injury rating 0-100; conditions: 10 days
How it was run: (§1)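 Compound in a non-phytotoxic, surfactant-containing solvent is applied either as a directed soil spray before seedlings emerge or onto emerged plants 2-10 cm tall; pots hold a loam-sand blend. Plants grow 10 days under greenhouse conditions and are rated by eye against untreated controls (0 no effect, 100 complete control).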

[2] = tested on: blackgrass (Alopecurus myosuroides); experiment: as above; conditions: 10 days
How it was run: as §1

corn (Zea mays) [3] = experiment: as above; conditions: 10 days
How it was run: as §1

[4] = tested on: green foxtail (Setaria viridis); experiment: as above; conditions: 10 days
How it was run: as §1

kochia (Bassia scoparia) [5] = experiment: as above; conditions: 10 days, 0 = no effect, 100 = complete control
How it was run: as §1

[6] = tested on: oat, wild (wild oat, Avena fatua); experiment: as above; conditions: 10 days
How it was run: as §1

[7] = tested on: palmer (palmer amaranth, palmer pigweed, Amaranthus palmeri); experiment: as above; conditions: 10 days
How it was run: as §1

[8] = tested on: ragweed (common ragweed, Ambrosia artemisiifolia); experiment: as above; conditions: 10 days
How it was run: as §1

[9] = tested on: ryegrass, Italian (italian ryegrass, Lolium multiflorum); experiment: as above; conditions: 10 days
How it was run: as §1

soybean (Glycine max) [10] = experiment: as above; conditions: 10 days
How it was run: as §1

[11] = tested on: wheat (Triticum aestivum); experiment: as above; conditions: 10 days
How it was run: as §1

[12] = tested on: barnyardgrass (Echinochloa crus-galli); experiment: Test A postemergence application, visual injury rating 0-100; conditions: for Barnyardgrass plant response rating (0 to 100 scale): Postemergence
How it was run: as §1

[13] = tested on: blackgrass (Alopecurus myosuroides); experiment: as above; conditions: for Blackgrass plant response rating (0 to 100 scale): Postemergence
How it was run: as §1

corn (Zea mays) [14] = experiment: as above; conditions: for Corn plant response rating (0 to 100 scale): Postemergence
How it was run: as §1

[15] = tested on: galium (catchweed bedstraw, Galium aparine); experiment: as above; conditions: for Galium plant response rating (0 to 100 scale): Postemergence
How it was run: as §1

[16] = tested on: green foxtail (Setaria viridis); experiment: as above; conditions: for Foxtail, Green plant response rating (0 to 100 scale): Postemergence
How it was run: as §1

[17] = tested on: horseweed (Erigeron canadensis); experiment: as above; conditions: for Horseweed plant response rating (0 to 100 scale): Postemergence
How it was run: as §1

kochia (Bassia scoparia) [18] = experiment: as above; conditions: for Kochia plant response rating (0 to 100 scale): Postemergence
How it was run: as §1

[19] = tested on: oat, wild (wild oat, Avena fatua); experiment: as above; conditions: for Oat, Wild plant response rating (0 to 100 scale): Postemergence
How it was run: as §1

[20] = tested on: palmer (palmer amaranth, palmer pigweed, Amaranthus palmeri); experiment: as above; conditions: for Amaranth, Palmer / Pigweed, Palmer plant response rating (0 to 100 scale): 0 is no effect, 100 is complete control
How it was run: as §1

[21] = tested on: ragweed (common ragweed, Ambrosia artemisiifolia); experiment: as above; conditions: for Ragweed plant response rating (0 to 100 scale): Postemergence
How it was run: as §1

[22] = tested on: ryegrass, Italian (italian ryegrass, Lolium multiflorum); experiment: as above; conditions: for Ryegrass, Italian plant response rating (0 to 100 scale): Postemergence
How it was run: as §1

soybean (Glycine max) [23] = experiment: as above; conditions: for Soybean plant response rating (0 to 100 scale): Postemergence
How it was run: as §1

[24] = tested on: wheat (Triticum aestivum); experiment: as above; conditions: for Wheat plant response rating (0 to 100 scale): Postemergence
How it was run: as §1

[25] = tested on: barnyardgrass (Echinochloa crusgalli); experiment: Test B flooded paddy test, visual plant response rating 0-100; conditions: 250 g ai/ha, Flood, applied to paddy water, evaluated after 13 days
How it was run: (§2)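 Plants were grown to the 2-leaf stage, then pots were flooded to 3 cm above the soil and compound was applied directly to the paddy water, with that depth kept throughout.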

[26] = tested on: ducksalad (Heteranthera limosa); experiment: as above; conditions: 250 g ai/ha, Flood, applied to paddy water, evaluated after 13 days
How it was run: as §2

rice (Oryza sativa) = experiment: as above; conditions: 250 g ai/ha, Flood, applied to paddy water, evaluated after 13 days
How it was run: as §2

[27] = tested on: sedge, umbrella (small-flower umbrella sedge, Cyperus difformis); experiment: as above; conditions: 250 g ai/ha, Flood, applied to paddy water, evaluated after 13 days
How it was run: as §2

[28] = 125 g ai/ha, 0 = no effect, 100 = complete control
[29] = 500 g ai/ha, 0 = no effect, 100 = complete control
[30] = 125 g ai/ha, 10 days, 0 is no effect, 100 is complete control
[31] = 500 g ai/ha, 10 days, 0 is no effect, 100 is complete control
[32] = 62 g ai/ha, 0 = no effect, 100 = complete control
[33] = 62 g ai/ha, postemergence, 10 days, 0 = no effect, 100 = complete control
[34] = 16 g ai/ha, greenhouse 10 days, 0 no effect, 100 complete control

CCOC(=O)C1C=CC(NC(=O)C2(C)CN(c3cc(Cl)cc(Cl)c3)C(=O)O2)C1 (stereo not shown) [Compound 44]
90: Blackgrass plant response rating (0 to 100 scale) [2, 28] | Corn plant response rating (0 to 100 scale) (corn (Zea mays) [3]; [29]) | Foxtail, Green plant response rating (0 to 100 scale) [4, 28] | Oat, Wild plant response rating (0 to 100 scale) [6, 29] | Ryegrass, Italian plant response rating (0 to 100 scale) [9, 28] | Wheat plant response rating (0 to 100 scale) [11, 28] | Wheat plant response rating (0 to 100 scale) [11, 29] | Foxtail, Green plant response rating (0 to 100 scale) [16, 30] | Foxtail, Green plant response rating (0 to 100 scale) [16, 31] | Horseweed plant response rating (0 to 100 scale) [17, 30] | Horseweed plant response rating (0 to 100 scale) [17, 31] | Oat, Wild plant response rating (0 to 100 scale) [19, 30] | Oat, Wild plant response rating (0 to 100 scale) [19, 31] | Ryegrass, Italian plant response rating (0 to 100 scale) [22, 30] | Soybean plant response rating (0 to 100 scale) (soybean (Glycine max) [23]; [30]) | Wheat plant response rating (0 to 100 scale) [24, 30] | Wheat plant response rating (0 to 100 scale) [24, 31] | Plant response rating, Ducksalad (0 to 100 scale, 0 is no effect and 100 is complete control) [26]
15: Plant response rating, Rice (0 to 100 scale, 0 is no effect and 100 is complete control) (rice (Oryza sativa))
20: Soybean plant response rating (0 to 100 scale) (soybean (Glycine max) [10]; [28])
70: Corn plant response rating (0 to 100 scale) (corn (Zea mays) [3]; [28]) | Soybean plant response rating (0 to 100 scale) (soybean (Glycine max) [10]; [29]) | Galium plant response rating (0 to 100 scale) [15, 30] | Galium plant response rating (0 to 100 scale) [15, 31] | Ragweed plant response rating (0 to 100 scale) [21, 30]
95: Plant response rating, Sedge, Umbrella (0 to 100 scale, 0 is no effect and 100 is complete control) [27]
80: Oat, Wild plant response rating (0 to 100 scale) [6, 28] | Kochia plant response rating (0 to 100 scale) (kochia (Bassia scoparia) [18]; [30]) | Kochia plant response rating (0 to 100 scale) (kochia (Bassia scoparia) [18]; [31]) | Ragweed plant response rating (0 to 100 scale) [21, 31] | Ryegrass, Italian plant response rating (0 to 100 scale) [22, 31] | Soybean plant response rating (0 to 100 scale) (soybean (Glycine max) [23]; [31]) | Plant response rating, Barnyardgrass (0 to 100 scale, 0 is no effect and 100 is complete control) [25]
100: Barnyardgrass plant response rating (0 to 100 scale) [1, 28] | Barnyardgrass plant response rating (0 to 100 scale) [1, 29] | Blackgrass plant response rating (0 to 100 scale) [2, 29] | Foxtail, Green plant response rating (0 to 100 scale) [4, 29] | Kochia plant response rating (0 to 100 scale) (kochia (Bassia scoparia) [5]; 125 g ai/ha) | Kochia plant response rating (0 to 100 scale) (kochia (Bassia scoparia) [5]; 500 g ai/ha) | Amaranth, Palmer plant response rating (0 to 100 scale) [7, 28] | Amaranth, Palmer plant response rating (0 to 100 scale) [7, 29] | Ryegrass, Italian plant response rating (0 to 100 scale) [9, 29] | Barnyardgrass plant response rating (0 to 100 scale) [12, 30] | Barnyardgrass plant response rating (0 to 100 scale) [12, 31] | Blackgrass plant response rating (0 to 100 scale) [13, 30] | Blackgrass plant response rating (0 to 100 scale) [13, 31] | Corn plant response rating (0 to 100 scale) (corn (Zea mays) [14]; [30]) | Corn plant response rating (0 to 100 scale) (corn (Zea mays) [14]; [31]) | Amaranth, Palmer / Pigweed, Palmer plant response rating (0 to 100 scale) ([20]; Postemergence, 125 g ai/ha, 10 days) | Amaranth, Palmer / Pigweed, Palmer plant response rating (0 to 100 scale) ([20]; Postemergence, 500 g ai/ha, 10 days)
10: Ragweed plant response rating (0 to 100 scale) [8, 28]
60: Ragweed plant response rating (0 to 100 scale) [8, 29]

CCOC(=O)C1C=CC(NC(=O)C2(C)CN(c3cc(C)cc(C)c3)C(=O)O2)C1 (stereo not shown) [Compound 116]
100: Barnyardgrass plant response rating (0-100) [1, 32] | Kochia plant response rating (0-100) (kochia (Bassia scoparia) [5]; 62 g ai/ha) | Pigweed, Palmer plant response rating (0-100) [7, 32] | Barnyardgrass plant response rating (0-100) [12, 33] | Corn plant response rating (0-100) (corn (Zea mays) [14]; [33])
30: Barnyardgrass plant response rating ([1]; 16 g ai/ha, 0 to 100 scale) | Wheat plant response rating (0-100) [11, 32] | Foxtail, Green plant response rating (0-100) [16, 33] | Ragweed plant response rating (0-100) [21, 33]
20: Kochia plant response rating (0 to 100 scale) (kochia (Bassia scoparia) [18]; [34]) | Ryegrass, Italian plant response rating (0 to 100 scale) [22, 34]
45: Plant response rating, Ducksalad (0 to 100 scale, 0 is no effect and 100 is complete control) [26]
0: Blackgrass plant response rating ([2]; 16 g ai/ha, 0 to 100 scale) | Corn plant response rating (corn (Zea mays) [3]; 16 g ai/ha, 0 to 100 scale) | Foxtail, Green plant response rating ([4]; 16 g ai/ha, 0 to 100 scale) | Oat, Wild plant response rating ([6]; 16 g ai/ha, 0 to 100 scale) | Ragweed plant response rating ([8]; 16 g ai/ha, 0 to 100 scale) | Ragweed plant response rating (0-100) [8, 32] | Ryegrass, Italian plant response rating ([9]; 16 g ai/ha, 0 to 100 scale) | Soybean plant response rating (soybean (Glycine max) [10]; 16 g ai/ha, 0 to 100 scale) | Soybean plant response rating (0-100) (soybean (Glycine max) [10]; [32]) | Wheat plant response rating ([11]; 16 g ai/ha, 0 to 100 scale) | Horseweed plant response rating (0-100) [17, 33] | Horseweed plant response rating (0 to 100 scale) [17, 34] | Pigweed, Palmer plant response rating (0 to 100 scale) ([20]; Postemergence, 16 g ai/ha, greenhouse 10 days, 0 no effect, 100 complete control) | Ragweed plant response rating (0 to 100 scale) [21, 34]
90: Blackgrass plant response rating (0-100) [13, 33] | Oat, Wild plant response rating (0-100) [19, 33] | Wheat plant response rating (0-100) [24, 33]
75: Plant response rating, Barnyardgrass (0 to 100 scale, 0 is no effect and 100 is complete control) [25]
55: Plant response rating, Sedge, Umbrella (0 to 100 scale, 0 is no effect and 100 is complete control) [27]
60: Galium plant response rating (0 to 100 scale) [15, 34] | Kochia plant response rating (0-100) (kochia (Bassia scoparia) [18]; [33]) | Oat, Wild plant response rating (0 to 100 scale) [19, 34] | Soybean plant response rating (0-100) (soybean (Glycine max) [23]; [33])
80: Foxtail, Green plant response rating (0-100) [4, 32] | Blackgrass plant response rating (0 to 100 scale) [13, 34]
40: Corn plant response rating (0 to 100 scale) (corn (Zea mays) [14]; [34]) | Pigweed, Palmer plant response rating (0-100) [20, 33] | Wheat plant response rating (0 to 100 scale) [24, 34]
70: Blackgrass plant response rating (0-100) [2, 32] | Ryegrass, Italian plant response rating (0-100) [9, 32] | Barnyardgrass plant response rating (0 to 100 scale) [12, 34] | Galium plant response rating (0-100) [15, 33] | Ryegrass, Italian plant response rating (0-100) [22, 33]
50: Oat, Wild plant response rating (0-100) [6, 32] | Soybean plant response rating (0 to 100 scale) (soybean (Glycine max) [23]; [34]) | Plant response rating, Rice (0 to 100 scale, 0 is no effect and 100 is complete control) (rice (Oryza sativa))
10: Corn plant response rating (0-100) (corn (Zea mays) [3]; [32]) | Pigweed, Palmer plant response rating ([7]; 16 g ai/ha, 0 to 100 scale) | Foxtail, Green plant response rating (0 to 100 scale) [16, 34]
